Tests used:
Test in all cases: cell-based
Assay type in all cases: cell-based
[1] = biological target: KCNQ4 (Homo sapiens, UniProt P56696)
Source text: (§1) cRNA transcripts encoding human KCNA1, KCNQ1, KCNQ2, KCNQ3, KCNQ4, or KCNQ5 were generated by in vitro transcription using the T7 polymerase message machine kit (Thermo Fisher Scientific), after vector linearization, from cDNA sub-cloned into plasmids incorporating X. laevis β-globin 5′ and 3′ UTRs flanking the coding region to enhance translation and cRNA stability. cRNA was quantified by spectrophotometry. Mutant cDNAs were generated by site-directed mutagenesis using a QuikChange kit according to manufacturer’s protocol (Stratagene, San Diego, CA) and corresponding cRNAs prepared as above. Defolliculated stage V and VI X. laevis oocytes (Ecocyte Bioscience, Austin, TX) were injected with Kv channel α subunit cRNAs (10 ng total per oocyte). Oocytes were incubated at 16 °C in Barth’s saline solution (Ecocyte) containing penicillin and streptomycin, with daily washing, for 3–5 days prior to two-electrode voltage-clamp (TEVC) recording.
(§2) Oocytes were placed in a small-volume oocyte bath (Warner) and viewed with a dissection microscope. Chemicals were sourced from Sigma. Bath solution was (in mM): 96 NaCl, 4 KCl, 1 MgCl2, 1 CaCl2, 10 HEPES (pH 7.6). […] MTX (DMSO), sorbic acid (ethanol), and glutaconic acid (molecular grade H2O) were stored at −20 °C as 1 M stocks. Oleamide was stored as a 1 mM stock in ethanol at 4 °C. Palmitic acid was conjugated with bovine serum albumin as a 1 mM stock and stored at −20 °C. All compounds were diluted to working concentrations each experimental day. All compounds were introduced to the recording bath via gravity perfusion at a constant flow of 1 ml/min for 3 min prior to recording. Pipettes were of 1–2 MΩ resistance when filled with 3 M KCl. Currents were recorded in response to pulses between −80 and +40 mV at 20 mV intervals, or a single pulse to +40 mV, from a holding potential of −80 mV, to yield current–voltage relationships, current magnitude, and for quantifying activation rate. TEVC data analysis was performed with Clampfit10.2 (Molecular Devices) and Graphpad Prism software (GraphPad, San Diego, CA, USA); values are stated as mean ± SEM. Normalized tail currents were plotted versus prepulse voltage and fitted with a single Boltzmann function:1 g=A1-A2/1+expV12-Vy+A2, where g is the normalized tail conductance, A1 is the initial value at −∞, A2 is the final value at +∞, V1/2 is the half-maximal voltage of activation, and Vs the slope factor. Activation and deactivation kinetics were fitted with single-exponential functions.

[2] = biological target: KCNQ5 (Homo sapiens, UniProt Q9NR82)
Source text: as §1, §2

[3] = biological target: KCNQ3* (KCNQ3-A315T) (Homo sapiens, UniProt O43525, A315T)
Sequence of KCNQ3* (KCNQ3-A315T) (O43525 whole entry A315T, looked up): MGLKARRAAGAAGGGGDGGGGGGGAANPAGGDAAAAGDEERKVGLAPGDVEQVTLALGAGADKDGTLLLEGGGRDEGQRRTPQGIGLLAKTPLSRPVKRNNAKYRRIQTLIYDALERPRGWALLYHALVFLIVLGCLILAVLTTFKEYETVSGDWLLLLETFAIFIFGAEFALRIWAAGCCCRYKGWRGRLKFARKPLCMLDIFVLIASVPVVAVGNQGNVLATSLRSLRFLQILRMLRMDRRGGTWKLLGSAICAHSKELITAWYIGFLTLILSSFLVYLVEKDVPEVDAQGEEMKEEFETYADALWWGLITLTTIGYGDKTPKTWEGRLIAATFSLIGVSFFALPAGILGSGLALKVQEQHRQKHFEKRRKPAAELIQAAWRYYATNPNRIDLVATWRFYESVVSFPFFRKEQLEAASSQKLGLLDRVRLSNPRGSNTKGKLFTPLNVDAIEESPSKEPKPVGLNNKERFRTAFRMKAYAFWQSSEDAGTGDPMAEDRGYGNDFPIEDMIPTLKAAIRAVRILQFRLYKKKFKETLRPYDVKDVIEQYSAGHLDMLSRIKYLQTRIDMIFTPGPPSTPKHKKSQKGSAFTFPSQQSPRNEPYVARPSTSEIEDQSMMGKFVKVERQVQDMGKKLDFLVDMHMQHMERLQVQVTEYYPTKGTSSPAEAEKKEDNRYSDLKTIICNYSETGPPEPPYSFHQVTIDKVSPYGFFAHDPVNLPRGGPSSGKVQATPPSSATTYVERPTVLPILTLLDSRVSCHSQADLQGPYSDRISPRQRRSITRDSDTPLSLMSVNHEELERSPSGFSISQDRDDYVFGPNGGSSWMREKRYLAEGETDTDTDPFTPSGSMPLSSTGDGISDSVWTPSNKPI
Source text: as §1, §2

## CC(=O)c1c(O)c(C)c(O)c(Cc2c(O)c3c(c(C(=O)/C=C/c4ccccc4)c2O)OC(C)(C)C=C3)c1O [MTX, mallotoxin]
[1]
  EC50: 20.2 µM
[1]; KCNQ4, 0.1 µM
  Non-normalized tail current V0.5: -17.1 ± 8.1 mV
  Normalized tail current V0.5: -17.0 ± 1.6 mV
  Slope: 14.1 ± 1.6 mV
  τ act, -40 mV: 941 ± 52 ms
  τ deact, -80 mV: 924 ± 223 ms
[1]; KCNQ4, 1 µM
  Non-normalized tail current V0.5: -18.1 ± 9.0 mV
  Normalized tail current V0.5: -18.1 ± 1.9 mV
  Slope: 15.0 ± 1.9 mV
  τ act, -40 mV: 878 ± 78 ms
  τ deact, -80 mV: 891 ± 234 ms
[1]; KCNQ4, 3 µM
  Non-normalized tail current V0.5: -20.5 ± 9.8 mV
  Normalized tail current V0.5: -20.1 ± 1.3 mV
  Slope: 15.6 ± 1.9 mV
  τ act, -40 mV: 851 ± 70 ms
  τ deact, -80 mV: 861 ± 240 ms
[1]; KCNQ4, 10 µM
  Non-normalized tail current V0.5: -25.3 ± 9.7 mV
  Normalized tail current V0.5: -25.6 ± 1.9 mV
  Slope: 15.9 ± 1.9 mV
  τ act, -40 mV: 847 ± 94 ms
  τ deact, -80 mV: 906 ± 293 ms
[1]; KCNQ4, 30 µM
  Non-normalized tail current V0.5: -32.9 ± 9.7 mV
  Normalized tail current V0.5: -32.1 ± 1.9 mV
  Slope: 14.4 ± 1.8 mV
  shift in midpoint voltage of activation: −17 mV
  τ act, -40 mV: 865 ± 108 ms
  τ deact, -80 mV: 905 ± 283 ms
[1]; KCNQ4, 100 µM
  Non-normalized tail current V0.5: -31.3 ± 9.4 mV
  Normalized tail current V0.5: -31.5 ± 1.3 mV
  Slope: 16.4 ± 3.2 mV
  τ act, -40 mV: 1092 ± 170 ms
  τ deact, -80 mV: 1197 ± 446 ms
[2]
  EC50: 67.1 µM
[2]; 100 µM
  KCNQ5 current increase at −60 mV: eight-fold
[2]; KCNQ5, 1 µM
  Non-normalized tail current V0.5: -49.3 ± 1.2 mV
  Normalized tail current V0.5: -49.9 ± 2.1 mV
  Slope: 8.3 ± 2.1 mV
[2]; KCNQ5, 3 µM
  Non-normalized tail current V0.5: -51.7 ± 1.8 mV
  Normalized tail current V0.5: -51.1 ± 2.3 mV
  Slope: 8.5 ± 2.1 mV
[2]; KCNQ5, 10 µM
  Non-normalized tail current V0.5: -51.9 ± 0.8 mV
  Normalized tail current V0.5: -51.5 ± 3.2 mV
  Slope: 8.6 ± 2.9 mV
[2]; KCNQ5, 30 µM
  Non-normalized tail current V0.5: -55.9 ± 0.8 mV
  Normalized tail current V0.5: -55.6 ± 3.8 mV
  Slope: 8.8 ± 3.6 mV
  shift in midpoint voltage of activation: −14 mV
[2]; KCNQ5, 100 µM
  Non-normalized tail current V0.5: -71.1 ± 2.6 mV
  Normalized tail current V0.5: -71.6 ± 2.1 mV
[3]
  EC50: 13 µM
[3]; KCNQ3*, 1 µM
  Non-normalized tail current V0.5: -56.1 ± 4.2 mV
  Normalized tail current V0.5: -56.4 ± 1.6 mV

Reference: paper PMC6155021, “Ancient and modern anticonvulsants act synergistically in a KCNQ potassium channel binding pocket” (Nature Communications, 2018)
